Measured values reported in patent US20220257540A1, “COMPOSITIONS AND METHODS FOR TREATMENT OF HEPATITIS B VIRUS INFECTION” (ANHUI RONGHANG BIOTECH DEVELOPMENT CO., LTD., priority 2019, published 2022).
Read-outs that look alike come from different tables or passages of the source.

What was measured:
[1] = system: HBV GT C; assay: In vitro anti-HBV efficacy in HBV-infected PXB-cells; format: cell-based; settings: for Extracellular HBV DNA / Extracellular HBsAg / Intracellular HBV DNA / Intracellular cccDNA / anti-HBV efficacy: Day 27; for Extracellular HBeAg: Day 27, 10 fold diluted sample; for anti-HBV efficacy: HBV-infected PXB-cells
Protocol: Materials & Methods: PXB-cells was infected with HBV GT C. […] The anti-HBV therapeutic efficacy was measured by the analysis of extracellular HBV DNA, HBsAg, HBeAg, h-Alb, and intracellular HBV DNA/cceDNA levels. Entecavir was used as the positive control. The hepatocytes isolated from 3 mice were combined to seed culture plate. The cell density of mixed cell was 7.37×10^6 cells/mL. PXB-cells® are the fresh hepatocytes which are isolated from PXB-mice. Cells viability after isolation: >80%. Donor Hepatocytes were purchased from Corning, Incorporated (Tewksbury, Mass., USA), Lot: BD195 ([…]). […] Entecavir was purchased from Santa-cruz, Lot: 10914, Concentration: 1 mM. Plates was observed under microscopy and photographed.

[2] = cited from earlier work; for Peak blood level (Cmax) / Exposure (area under the curve) / terminal half-life: fasted healthy volunteers; for mean Cmax: healthy adults, capsules orally
[3] = system: chronic Hepatitis B; settings: 1 mg a day orally for 5 days-a-week over 6 months, cited from earlier work
[4] = system: HBV-related postnecrotic cirrhosis; settings: double-blind controlled trial, 100 patients; cited from earlier work
[5] = system: liver fibrosis; settings: rats with carbon tetrachloride induced cirrhosis; cited from earlier work
[6] = ingested more than 0.8 mg/kg; cited from earlier work

SMILES: C=C1[C@H](CO)[C@@H](O)C[C@@H]1n1cnc2c(=O)[nH]c(N)nc21 [Entecavir]
- Extracellular HBV DNA ([1]; Entecavir 9.8 pM): 6.36 Log copies/mL
- Extracellular HBsAg ([1]; Entecavir 9.8 pM): 16.0 IU/mL
- Intracellular HBV DNA ([1]; Entecavir 9.8 pM): 91546 copies/100 ng DNA
- Intracellular cccDNA ([1]; Entecavir 9.8 pM): 125 copies/100 ng DNA
- Extracellular HBeAg ([1]; Entecavir 9.8 pM): 11.6 C.O.I
- Extracellular HBV DNA ([1]; Entecavir 19.5 pM): 5.76 Log copies/mL
- Extracellular HBsAg ([1]; Entecavir 19.5 pM): 14.2 IU/mL
- Intracellular HBV DNA ([1]; Entecavir 19.5 pM): 53766 copies/100 ng DNA
- Intracellular cccDNA ([1]; Entecavir 19.5 pM): 82 copies/100 ng DNA
- Extracellular HBeAg ([1]; Entecavir 19.5 pM): 10.0 C.O.I
- Extracellular HBV DNA ([1]; Entecavir 39.1 pM): 5.06 Log copies/mL
- Extracellular HBsAg ([1]; Entecavir 39.1 pM): 12.2 IU/mL
- Intracellular HBV DNA ([1]; Entecavir 39.1 pM): 30701 copies/100 ng DNA
- Intracellular cccDNA ([1]; Entecavir 39.1 pM): 69 copies/100 ng DNA
- Extracellular HBeAg ([1]; Entecavir 39.1 pM): 8.1 C.O.I
- Extracellular HBV DNA ([1]; Entecavir 78.1 pM): 4.66 Log copies/mL
- Extracellular HBsAg ([1]; Entecavir 78.1 pM): 15.7 IU/mL
- Intracellular HBV DNA ([1]; Entecavir 78.1 pM): 14257 copies/100 ng DNA
- Intracellular cccDNA ([1]; Entecavir 78.1 pM): 82 copies/100 ng DNA
- Extracellular HBeAg ([1]; Entecavir 78.1 pM): 9.8 C.O.I
- Extracellular HBV DNA ([1]; Entecavir 156.3 pM): 4.56 Log copies/mL
- Extracellular HBsAg ([1]; Entecavir 156.3 pM): 15.1 IU/mL
- Intracellular HBV DNA ([1]; Entecavir 156.3 pM): 5620 copies/100 ng DNA
- Intracellular cccDNA ([1]; Entecavir 156.3 pM): 61 copies/100 ng DNA
- Extracellular HBeAg ([1]; Entecavir 156.3 pM): 9.6 C.O.I
- Extracellular HBV DNA ([1]; Entecavir 312.5 pM): 4.46 Log copies/mL
- Extracellular HBsAg ([1]; Entecavir 312.5 pM): 14.3 IU/mL
- Intracellular HBV DNA ([1]; Entecavir 312.5 pM): 3752 copies/100 ng DNA
- Intracellular cccDNA ([1]; Entecavir 312.5 pM): 34 copies/100 ng DNA
- Extracellular HBeAg ([1]; Entecavir 312.5 pM): 9.4 C.O.I
- Extracellular HBV DNA ([1]; Entecavir 625 pM): 4.46 Log copies/mL
- Extracellular HBsAg ([1]; Entecavir 625 pM): 13.0 IU/mL
- Intracellular HBV DNA ([1]; Entecavir 625 pM): 2954 copies/100 ng DNA
- Intracellular cccDNA ([1]; Entecavir 625 pM): +
- Extracellular HBeAg ([1]; Entecavir 625 pM): 8.9 C.O.I
- Extracellular HBV DNA ([1]; Entecavir 1.25 nM): 4.46 Log copies/mL
- Extracellular HBsAg ([1]; Entecavir 1.25 nM): 11.2 IU/mL
- Intracellular HBV DNA ([1]; Entecavir 1.25 nM): 3031 copies/100 ng DNA
- Intracellular cccDNA ([1]; Entecavir 1.25 nM): +
- Extracellular HBeAg ([1]; Entecavir 1.25 nM): 6.9 C.O.I
- Extracellular HBV DNA ([1]; Entecavir 5 nM): 4.26 Log copies/mL
- Extracellular HBsAg ([1]; Entecavir 5 nM): 10.9 IU/mL
- Intracellular HBV DNA ([1]; Entecavir 5 nM): 2974 copies/100 ng DNA
- Intracellular cccDNA ([1]; Entecavir 5 nM): 33 copies/100 ng DNA
- Extracellular HBeAg ([1]; Entecavir 5 nM): 7.1 C.O.I
- Extracellular HBV DNA ([1]; Entecavir 10 nM): 4.46 Log copies/mL
- Extracellular HBsAg ([1]; Entecavir 10 nM): 11.6 IU/mL
- Intracellular HBV DNA ([1]; Entecavir 10 nM): 2936 copies/100 ng DNA
- Intracellular cccDNA ([1]; Entecavir 10 nM): +
- Extracellular HBeAg ([1]; Entecavir 10 nM): 7.4 C.O.I
- anti-HBV efficacy [1]: anti-HBV efficacy in a dose dependent manner

SMILES: COc1cc2c(c(OC)c1OC)-c1ccc(OC)c(=O)cc1[C@@H](NC(C)=O)CC2 [Colchicine, N [5,6,7,9-tetrahydro-1,2,3,10-tetratmethoxy 9-oxobenzo[a]heptalen-7-yl], (S)-acetamide]
- Extracellular HBV DNA ([1]; Colchicine 1 nM): 7.06 Log copies/mL
- Extracellular HBsAg ([1]; Colchicine 1 nM): 23.1 IU/mL
- Intracellular HBV DNA ([1]; Colchicine 1 nM): 250511 copies/100 ng DNA
- Intracellular cccDNA ([1]; Colchicine 1 nM): 217 copies/100 ng DNA
- Extracellular HBeAg ([1]; Colchicine 1 nM): 14.7 C.O.I
- Extracellular HBV DNA ([1]; Colchicine 2 nM): 7.06 Log copies/mL
- Extracellular HBsAg ([1]; Colchicine 2 nM): 23.5 IU/mL
- Intracellular HBV DNA ([1]; Colchicine 2 nM): 235131 copies/100 ng DNA
- Intracellular cccDNA ([1]; Colchicine 2 nM): 207 copies/100 ng DNA
- Extracellular HBeAg ([1]; Colchicine 2 nM): 16.2 C.O.I
- Extracellular HBV DNA ([1]; Colchicine 3.9 nM): 7.16 Log copies/mL
- Extracellular HBsAg ([1]; Colchicine 3.9 nM): 26.7 IU/mL
- Intracellular HBV DNA ([1]; Colchicine 3.9 nM): 282895 copies/100 ng DNA
- Intracellular cccDNA ([1]; Colchicine 3.9 nM): 247 copies/100 ng DNA
- Extracellular HBeAg ([1]; Colchicine 3.9 nM): 19.2 C.O.I
- Extracellular HBV DNA ([1]; Colchicine 7.8 nM): 7.06 Log copies/mL
- Extracellular HBsAg ([1]; Colchicine 7.8 nM): 25.5 IU/mL
- Intracellular HBV DNA ([1]; Colchicine 7.8 nM): 270324 copies/100 ng DNA
- Intracellular cccDNA ([1]; Colchicine 7.8 nM): 227 copies/100 ng DNA
- Extracellular HBeAg ([1]; Colchicine 7.8 nM): 17.4 C.O.I
- Extracellular HBV DNA ([1]; Colchicine 15.6 nM): 6.86 Log copies/mL
- Extracellular HBsAg ([1]; Colchicine 15.6 nM): 25.2 IU/mL
- Intracellular HBV DNA ([1]; Colchicine 15.6 nM): 256994 copies/100 ng DNA
- Intracellular cccDNA ([1]; Colchicine 15.6 nM): 261 copies/100 ng DNA
- Extracellular HBeAg ([1]; Colchicine 15.6 nM): 16.3 C.O.I
- Extracellular HBV DNA ([1]; Colchicine 31.3 nM): 6.06 Log copies/mL
- Extracellular HBsAg ([1]; Colchicine 31.3 nM): 2.17 IU/mL
- Intracellular HBV DNA ([1]; Colchicine 31.3 nM): 52249 copies/100 ng DNA
- Intracellular cccDNA ([1]; Colchicine 31.3 nM): 80 copies/100 ng DNA
- Extracellular HBeAg ([1]; Colchicine 31.3 nM): 3.6 C.O.I
- Extracellular HBV DNA ([1]; Colchicine 62.5 nM): 4.86 Log copies/mL
- Extracellular HBsAg ([1]; Colchicine 62.5 nM): 0.12 IU/mL
- Intracellular HBV DNA ([1]; Colchicine 62.5 nM): 9638 copies/100 ng DNA
- Intracellular cccDNA ([1]; Colchicine 62.5 nM): +
- Extracellular HBeAg ([1]; Colchicine 62.5 nM): 0.7 C.O.I
- Extracellular HBV DNA ([1]; Colchicine 125 nM): 4.86 Log copies/mL
- Extracellular HBsAg ([1]; Colchicine 125 nM): <0.05 IU/mL
- Intracellular HBV DNA ([1]; Colchicine 125 nM): 8341 copies/100 ng DNA
- Intracellular cccDNA ([1]; Colchicine 125 nM): +
- Extracellular HBeAg ([1]; Colchicine 125 nM): 0.3 C.O.I
- Extracellular HBV DNA ([1]; Colchicine 250 nM): 4.86 Log copies/mL
- Extracellular HBsAg ([1]; Colchicine 250 nM): <0.05 IU/mL
- Intracellular HBV DNA ([1]; Colchicine 250 nM): 9187 copies/100 ng DNA
- Intracellular cccDNA ([1]; Colchicine 250 nM): +
- Extracellular HBeAg ([1]; Colchicine 250 nM): 0.2 C.O.I
- Extracellular HBV DNA ([1]; Colchicine 500 nM): 4.86 Log copies/mL
- Extracellular HBsAg ([1]; Colchicine 500 nM): <0.05 IU/mL
- Intracellular HBV DNA ([1]; Colchicine 500 nM): 9019 copies/100 ng DNA
- Intracellular cccDNA ([1]; Colchicine 500 nM): +
- Extracellular HBeAg ([1]; Colchicine 500 nM): 0.2 C.O.I
- Extracellular HBV DNA ([1]; Colchicine 1000 nM): 4.86 Log copies/mL
- Extracellular HBsAg ([1]; Colchicine 1000 nM): <0.05 IU/mL
- Intracellular HBV DNA ([1]; Colchicine 1000 nM): 8717 copies/100 ng DNA
- Intracellular cccDNA ([1]; Colchicine 1000 nM): 29 copies/100 ng DNA
- Extracellular HBeAg ([1]; Colchicine 1000 nM): 0.2 C.O.I
- anti-HBV efficacy [1]: anti-HBV efficacy in a dose dependent manner
- Peak blood level (Cmax) ([2]; high-dose (1.2 mg followed by 0.6 mg every hour for 6 h; 4.8 mg total)): 6.84 ng/mL
- Exposure (area under the curve) ([2]; high-dose (4.8 mg total)): 118.2 ng/h/mL
- terminal half-life ([2]; high-dose (4.8 mg total)): 31.4 h
- Peak blood level (Cmax) ([2]; low-dose (1.2 mg followed by 0.6 mg in 1 h; 1.8 mg total)): 6.19 ng/mL
- Exposure (area under the curve) ([2]; low-dose (1.8 mg total)): 52.1 ng/h/mL
- terminal half-life ([2]; low-dose (1.8 mg total)): 23.6 h
- Exposure (area under the curve) ([2]; single dose (0.6 mg)): 14.1 ng/h/mL
- terminal half-life ([2]; single dose (0.6 mg)): 6.36 h
- mean Cmax ([2]; 0.6 mg single dose): 3 ng/mL
- mean Cmax ([2]; 1.0 mg single dose): 6.50 ± 1.03 ng/mL
- Absolute bioavailability ([2]; human, in vivo): approximately 45%
- patients failed (response rate) ([3]; pilot study): 3 of 7
- sustained response, treated patients ([3]; two-center trial, 4 of 6 treated patients): 66.6%
- effect in the treatment of HBV-related postnecrotic cirrhosis [4]: no effect
- liver fibrosis [5]: decrease liver fibrosis
- mortality [6]: 100%
